# Laboratory results taken from patent US20050239873A1 (priority 1999, published 2005).
# Values joined by “and” are separate entries in the source; they are usually repeats but may differ in a detail not shown here. Identical values can stand only once.
# Assays:
# [1] = Pharmacokinetic evaluation in male CD2F1 mice; assay type: in vivo, mouse
# Experimental: To determine the pharmacokinetics of 2-OMe antimycin A1 in male CD2F1 mice, groups of three were dosed either intravenously (tail vein) or intraperitoneally with 2-OMe antimycin A1 (20 mg/kg) in a vehicle of Cremaphor (5%) and ethanol (5%) in 0.9% saline. For both dosing routes, the volume administered was 5 ml/kg body weight. At various times, samples were collected by cardiac puncture into tubes containing NaF/EDTA (dry powders).
# Pharmacokinetic values were derived with WinNonlin® software (Mountain View, Calif.).
# RPMI-8226 cells = assay: Mitochondrial membrane potential (safranin O); assay type: cell-based, human
# Experimental: RPMI-8226 cells (2×10^7) were resuspended in buffer containing 130 mM KCl, 5 mM malate, 5 mM glutamate, 2 mM KPO4, 5 mM HEPES, pH 7.0 with 5 μM safranin O dye, in a stirred cuvette at 28° C. Fluorescence was measured at 495 nm excitation, 586 nm emission on a RF-5301PC spectrofluorophotometer (Shimadzu, Japan). Safranin O fluorescence was quenched following addition of 0.0025% digitonin as the dye accumulates in active mitochondria (Fiskum et al., Methods Enzymol. 322:222-234, 2000). Depolarization of the mitochondrial inner membrane caused a shift of safranin O localization from mitochondria to cytoplasm, evident as increased fluorescence.
# [2] = test system: mitochondria from TABX1A cells; assay: Swelling of isolated mitochondria (absorbance at 540 nm); set-up: species or system murine; conditions: even at much higher concentrations
# TABX1A cells = assay: Intracellular ATP, luciferase-luciferin assay; assay type: cell-based, murine; conditions: 2 μg/ml plus fructose 50 mM
# Experimental: (§1) Fructose is a substrate that provides ATP production through the glycolytic pathway. After a 30-60 minute incubation, cells were harvested and intracellular ATP concentrations were determined by an ATP-dependent luciferase-luciferin assay (Sigma, St. Louis, Mo.). The ATP concentrations in DMSO-treated cells were taken as 100%. In parallel experiments, cell viability was determined after six hours.
# TABX2S cells = assay: Intracellular ATP, luciferase-luciferin assay; assay type: cell-based, murine; conditions: 2 μg/ml plus fructose 50 mM
# Experimental: as §1
# [3] = test system: TABX1A cells (under-expressing Bcl-xL); assay: Cell viability by trypan blue dye exclusion; conditions: 2 μg/ml, without fructose, six hours
# Text: Briefly, a DNA fragment encoding the full-length mouse BCl-xL cDNA was isolated from the plasmid PBS.BCL-xL (Tzung et al., Am. J. Path. 150:1985-1995, 1997, incorporated herein by reference in its entirety) by digestion with the restriction endonuclease EcoRI. This EcoRI fragment was cloned into the EcoRI site of the mammalian expression vector pSFFV (Fuhlbrigge et al., Proc. Nat. Acad. Sci. USA 85:5649-5653, 1988) in both sense and antisense orientations, to form expression plasmids pSFFV.Bcl-xL(sense) or pSFFV.Bcl-xL(antisense), respectively. The tumorigenic murine hepatocyte cell line TAMH was transfected by lipofection (Lipofectamine, Life Technologies, Rockville, Md., according to the manufacturer's recommendations) with the plasmids pSFFV.neo (the control), pSFFV.Bcl-xL(sense) or pSFFV.Bcl-xL(antisense). […] Transfectants were selected for the acquisition of neomycin resistance by growing cells in the presence of 750 μg/ml of G418. Bulk transfectants were cloned by limiting dilution and individual clones were screened by immunoblot analysis to determine the level of BCl-xL protein expression as described below.
# Selected transfectants were then tested for whole cell sensitivity to several apoptotic agents. Transfected cells were cultured to reach approximately 80% confluency prior to plating an equal number of cells from selected clones on 12-well tissue culture plates. […] Cell viability was determined by trypan blue dye exclusion. The percentage of viable cells was calculated by the number of viable cells (treated with a particular apoptogenic agent) divided by the number in the control group (untreated).
# TABX2S cells and TABX1A cells were also examined for the effects of various mitochondrial inhibitors. […] At various time points after drug treatment, cells were trypsinized, and cell viability was determined by trypan blue dye exclusion. The number of viable cells were counted and normalized to control group (i.e., % control=number of viable cells (treated group)/number of viable cells (control group)×100).
# [4] = test system: myeloid leukemia cell lines; assay: Propidium iodide exclusion cytotoxicity; assay type: cell-based, human; conditions: 20 μg/ml, even after 48 h; seven or eight cell lines
# Experimental: Cell survival was assayed by exclusion of propidium iodide (PI; 10 μg/ml) by unfixed cells. Annexin V-FITC (Pharmingen) or 3, 3′-dihexyloxacarbocyanine iodide (DiOC6(3); Molecular Probes) staining was analyzed together with PI to discriminate early apoptotic cells. Apoptotic cells were also measured as sub-G1 events among ethanol-fixed cells stained with 10 μg/ml PI. All cell samples were analyzed using a benchtop FACSCalibur™ (Becton Dickinson, San Jose, Calif.). Flow data were analyzed using MultiCycle AV software (Phoenix Flow Systems). For intracellular pH measurements, cell pellets were washed once and resuspended in 2 ml of HEPES-buffered medium (no phenol red and no serum). Carboxy-SNARF-1-AM (Molecular Probes, 1 mM stock in DMSO, stored at −20° C.) was added to a final concentration of 10 μM, and the cells were incubated for 30 min at 37° C. Following incubation with SNARF, cells were sedimented and the pellets were held on ice. Immediately before analysis, pellets were resuspended in […] (HBSS; experimental buffer) or high-[K+] buffer containing nigericin (calibration samples).
# [5] = test system: control mitochondria (TABX1A cells); assay: Rhodamine 123 retention assay; set-up: species or system murine
# Experimental: Rh-123 is a cationic lipid-soluble fluorescent dye that accumulates in mitochondria in proportion to the mitochondrial membrane potential. Mitochondria were isolated from TABX2S cells (over-expressing Bcl-xL) and from control cells, prepared as described in Example 2. The isolated mitochondria were loaded with Rh-123 by incubating with 10 μM Rh-123 for 30 minutes, washed and resuspended in buffer. […] Less than 40% of Rh-123 was retained in antimycin A-treated TABX2S mitochondria, compared with greater than 80% retained in control mitochondria.
# In contrast, the control cells, which express BCl-xL at physiological levels, were resistant to BH3 peptide-induced membrane depolarization.
compound,measurement,setting,value
"CCCCCC[C@H]1C(=O)O[C@H](C)[C@H](NC(=O)c2cccc(NC=O)c2OC)C(=O)O[C@@H](C)[C@@H]1OC(=O)CC(C)C [2-OMeA1, 2-methoxy antimycin A1]",AUC,[1]; Intraperitoneal dose 20 mg/kg,2410 ng·h/mL
same,Cmax,[1]; Intraperitoneal dose 20 mg/kg,483 ng/mL
same,MRT,[1]; Intraperitoneal dose 20 mg/kg,474 min
same,T1/2,[1]; Intraperitoneal dose 20 mg/kg,183 min
same,AUC,[1]; Intravenous dose 20 mg/kg,3720 ng·h/mL
same,Cmax,[1]; Intravenous dose 20 mg/kg,8000 ng/mL
same,MRT,[1]; Intravenous dose 20 mg/kg,27.6 min
same,T1/2,"[1]; Intravenous dose 20 mg/kg, 20 mg/kg",19 min and 19.2 min
same,plasma concentration at 24 hr after dosing,[1]; intraperitoneal 20 mg/kg,18 ng/mL
same,time of maximum plasma level,[1]; intraperitoneal 20 mg/kg,30 min
same,plasma concentration at 30 min after dosing,[1]; intravenous 20 mg/kg,1040 ng/mL
same,plasma concentration at 30 min as share of that at 5 min,[1]; intravenous 20 mg/kg,about 15%
same,plasma concentration at 24 hr after dosing,[1]; intravenous 20 mg/kg,15 ng/mL
2-methoxy antimycin A [2-OMeA],acute changes in mitochondrial membrane potential,RPMI-8226 cells,No acute changes
antimycin A,mitochondrial swelling,[2],did not exhibit similar permeability changes and swelling
same,"ATP level, of control",TABX1A cells,approximately 60%
same,"ATP level, of control",TABX2S cells,approximately 60%
same,survival,[3],87%
same,sensitivity (PI exclusion),[4],resistant
same,Rh123 dye leakage,[5]; BH3 peptide 3.5 μM,minimally affected
same,Rh-123 retained,[5]; five minutes after adding,greater than 80%
